Laboratory results from publication PMC9064817 (RSC Advances, 2019).
Where two headings read alike, the source gives them in different places.

What was measured:
[1] = tested on: tubulin; experiment: fluorescence-based tubulin polymerization assay; format: biochemical, Bos taurus; conditions: read-out: Anti-tubulin activity (IC50)
[2] = tested on: tubulin; experiment: fluorescence-based tubulin polymerization assay; format: biochemical, Bos taurus; conditions: read-out: Anti-tubulin activity (IC50); remark: listed apart in the source

IC50 [1] [nM] | IC50 [2] [nM] | Structure (SMILES)
2360 | – | CN1c2cccc(C(=O)Nc3cccnc3)c2Nc2cccc(Cl)c21 [8l, 6-Chloro-5-methyl-N-(pyridin-3-yl)-5,10-dihydrophenazine-1-carboxamide]
2640 | – | COc1cccc(NC(=O)c2cccc3c2Nc2cccc(Cl)c2N3C)c1 [8a, 6-Chloro-N-(3-methoxyphenyl)-5-methyl-5,10-dihydrophenazine-1-carboxamide]
